In US20160008382A1, “METHODS OF TREATMENT OF CANCER” (Millennium Pharmaceuticals, Inc., priority 2012, published 2016):

Columns and labels:
[1] = test system: relapsed or refractory mantle cell lymphoma; conditions: patients with relapsed or refractory mantle cell lymphoma, Phase II; cited from earlier work
[2] = on exposure to aqueous solution or plasma; cited from earlier work
[3] = test system: hematological and solid tumor xenograft models; conditions: range of hematological and solid tumor xenograft models; cited from earlier work
[4] = test system: nasopharyngeal cancer; assay: Treatment of nasopharyngeal cancer patients with the compound of formula (III-A), IV twice-weekly; clinical response; format: in vivo, human
Procedure: (1) Tissue Microarray (obtained from US Biomax, Inc.) of primary nasopharyngeal cancer (n=35) (2) Tissue Microarray of metastatic nasopharyngeal cancer (obtained from US Biomax, Inc.) (n=15) (3) Tissue Microarray of other histologies of head and neck cancers (obtained from US Biomax, Inc.) (n=68) (4) Archival primary tumor biopsy samples of patients with head and neck squamous cell cancers (n=14). All samples were obtained under the appropriate informed consent. The patients were administered the compound of formula (III-A) on a twice-weekly schedule (days 1, 4, 8 and 11 of a 21-day cycle) as an IV injection. Of the primary tumor samples in (4), there were three patients with nasopharyngeal cancer.

SMILES | activity in patients [1] | hydrolysis to the active form MLN2238 [2] | anti-tumor activity in xenograft models [3] | clinical response, Patient 1 ([4]; Patient 1, metastatic nasopharyngeal cancer of a squamous cell type, IV injection days 1, 4, 8 and 11 of a 21-day cycle, NFκB p65 H-score 300) | Responder/Non-responder, Patient 1 ([4]; Patient 1, nasopharyngeal cancer, NFκB p65 IHC assay H-score 300) | disease progression, Patient 2 (time to progression) ([4]; Patient 2, nasopharyngeal cancer, IV injection days 1, 4, 8 and 11 of a 21-day cycle, NFκB p65 H-score 200) | Responder/Non-responder, Patient 2 ([4]; Patient 2, nasopharyngeal cancer, NFκB p65 IHC assay H-score 200) | clinical response, Patient 3 ([4]; Patient 3, nasopharyngeal cancer, IV injection days 1, 4, 8 and 11 of a 21-day cycle, NFκB p65 H-score 160) | Responder/Non-responder, Patient 3 ([4]; Patient 3, nasopharyngeal cancer, NFκB p65 IHC assay H-score 160)
CC(C)C[C@H](NC(=O)[C@H](Cc1ccccc1)NC(=O)c1cnccn1)B(O)O [bortezomib, N-2-pyrazinecarbonyl-L-phenylalanine-L-leucineboronic acid] | activity |  |  |  |  |  |  |  | 
CC(C)C[C@H](NC(=O)CNC(=O)c1cc(Cl)ccc1Cl)B1OC(=O)C(CC(=O)O)(CC(=O)O)O1 [compound of formula (III-A), 2,2′-{2-[(1R)-1-({[(2,5-dichlorobenzoyl)amino]acetyl}amino)-3-methylbutyl]-5-oxo-1,3,2-dioxaborolane-4,4-diyl}diacetic acid] |  | rapidly hydrolyzes | anti-tumor activity | durable partial response | Responder | ≤ 4 cycles | Non-responder | progressive disease | Non-responder
